Experimental findings from US10344025B2, “GLS1 inhibitors for treating disease” (Board of Regents, The University of Texas System, priority 2014, dated 2019) are described below.

Assay [1] concerns the target purified recombinant human GAC (GLS1) (Homo sapiens (Human), UniProt O94925). As to the kind of experiment: GLS1 Enzymatic Activity Assay (dual-coupled enzymatic assay, resorufin/Amplex UltraRed readout).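 Further: glutamate from GAC coupled via glutamate oxidase and peroxidase to resorufin, read as fluorescence (ex 530, em 590 nm) kinetically or at 20 min, four-parameter logistic IC50 fit.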 It counts as biochemical.
In the next assay the test system is A549 cells. Kind of assay: Proliferation Assay (A549 viability, Cell Titer Fluor, 72 hours). It counts as cell-based. Conditions: Homo sapiens, A549, 72 h. Summed up:
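A549 cells seeded at 1000 cells/well, rested 24 h, then exposed to compound in 0.5% DMSO for 72 h at 37 °C. Viability read by Cell Titer Fluor fluorescence; IC50 from four-parameter logistic fit.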

Chain of purified recombinant human GAC (GLS1) (O94925 other isoform, or with tags, fused parts or gaps): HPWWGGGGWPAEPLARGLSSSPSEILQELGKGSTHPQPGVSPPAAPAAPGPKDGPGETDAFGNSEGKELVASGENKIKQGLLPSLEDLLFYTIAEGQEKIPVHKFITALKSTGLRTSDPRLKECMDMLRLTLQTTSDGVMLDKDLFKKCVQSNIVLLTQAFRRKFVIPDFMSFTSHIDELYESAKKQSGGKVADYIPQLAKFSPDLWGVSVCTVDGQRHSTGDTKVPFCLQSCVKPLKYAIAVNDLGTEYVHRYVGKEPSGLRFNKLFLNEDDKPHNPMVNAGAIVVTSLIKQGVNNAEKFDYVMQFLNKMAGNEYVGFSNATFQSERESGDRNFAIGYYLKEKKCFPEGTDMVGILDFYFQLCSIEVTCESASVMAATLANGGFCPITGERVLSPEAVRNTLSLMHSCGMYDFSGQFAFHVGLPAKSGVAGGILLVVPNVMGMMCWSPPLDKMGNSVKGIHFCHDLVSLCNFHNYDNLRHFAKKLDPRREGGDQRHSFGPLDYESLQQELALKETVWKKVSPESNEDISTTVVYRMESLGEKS

With `O=C(NCc1cc(OC(F)(F)F)ccc1F)c1cn(CC(F)CCc2nnc(NC(=O)C3CCCCO3)s2)nn1` (stereo not shown) [Example 574, 1-(2-fluoro-4-(5-(tetrahydro-2H-pyran-2-carboxamido)-1,3,4-thiadiazol-2-yl)butyl)-N-(2-fluoro-5-(trifluoromethoxy)benzyl)-1H-1,2,3-triazole-4-carboxamide], in assay [1], the half-inhibitory concentration (IC50) was under 100 nM. The EC50 in the assay with A549 cells was under 100 nM.
In the case of `O=C(Cc1ccn[nH]1)Nc1nnc(CCC(F)Cn2cc(C(=O)NCc3cc(OC(F)(F)F)ccc3F)nn2)s1` (stereo not shown) [Example 575, 1-(4-(5-(2-(1H-pyrazol-5-yl)acetamido)-1,3,4-thiadiazol-2-yl)-2-fluorobutyl)-N-(2-fluoro-5-(trifluoromethoxy)benzyl)-1H-1,2,3-triazole-4-carboxamide], the IC50 in assay [1] was under 100 nM. For the same compound, in the assay with A549 cells, the EC50 was 100 to 500 nM.
For the compound `Cn1cnc(CC(=O)Nc2nnc(CCC(F)Cn3cc(C(=O)NCc4cc(OC(F)(F)F)ccc4F)nn3)s2)c1` (stereo not shown) [Example 576, 1-(2-fluoro-4-(5-(2-(1-methyl-1H-imidazol-4-yl)acetamido)-1,3,4-thiadiazol-2-yl)butyl)-N-(2-fluoro-5-(trifluoromethoxy)benzyl)-1H-1,2,3-triazole-4-carboxamide], in assay [1], the half-inhibitory concentration (IC50) was under 100 nM. Also, the EC50 in the assay on A549 cells was under 100 nM.
For the compound `O=C(Nc1nnc(CCC(F)Cn2cc(C(=O)NCc3cc(OC(F)(F)F)ccc3F)nn2)s1)c1cccnc1` (stereo not shown) [Example 577, N-(5-(3-fluoro-4-(4-((2-fluoro-5-(trifluoromethoxy)benzyl)carbamoyl)-1H-1,2,3-triazol-1-yl)butyl)-1,3,4-thiadiazol-2-yl)nicotinamide], the concentration for half-maximal inhibition (IC50) in assay [1] was under 100 nM. Further, the EC50 in the assay on A549 cells was 500 to 5000 nM.
With `CNC(=O)c1cn(CC(F)CCc2nnc(NC(=O)Cc3cccnc3)s2)nn1` (stereo not shown) [Example 578, 1-(2-fluoro-4-(5-(2-(pyridin-3-yl)acetamido)-1,3,4-thiadiazol-2-yl)butyl)-N-methyl-1H-1,2,3-triazole-4-carboxamide], the half-inhibitory concentration (IC50) in assay [1] is under 100 nM. In the assay on A549 cells, this compound returned an EC50 of 500 to 5000 nM.
`CNC(=O)c1cn(CCCCc2ccc(NC(=O)Cc3cnccn3)nn2)nn1` [Example 579, N-methyl-1-(4-(6-(2-(pyrazin-2-yl)acetamido)pyridazin-3-yl)butyl)-1H-1,2,3-triazole-4-carboxamide]: in assay [1], the IC50 is 100 to 500 nM. In the assay on A549 cells, this compound gave an EC50 of 500 to 5000 nM.
Take `O=C(Cc1cc(C2CC2)ccn1)Nc1nnc(CCC(F)Cn2cc(C(=O)NCc3cncc(C(F)(F)F)c3)nn2)s1` (stereo not shown) [Example 580, 1-(4-(5-(2-(4-cyclopropylpyridin-2-yl)acetamido)-1,3,4-thiadiazol-2-yl)-2-fluorobutyl)-N-((5-(trifluoromethyl)pyridin-3-yl)methyl)-1H-1,2,3-triazole-4-carboxamide]: the IC50 in assay [1] was under 100 nM. In addition, in the assay on A549 cells, the EC50 was under 100 nM.
Regarding `O=C(Cc1cc(OC(F)(F)F)ccc1F)Nc1ccc(CCCCn2cc(C(=O)NC3COC3)nn2)nn1` [Example 581, 1-(4-(6-(2-(2-fluoro-5-(trifluoromethoxy)phenyl)acetamido)pyridazin-3-yl)butyl)-N-(oxetan-3-yl)-1H-1,2,3-triazole-4-carboxamide], in assay [1], the 50% inhibitory concentration (IC50) is under 100 nM. The 50% effective concentration (EC50) with A549 cells is 100 to 500 nM.
The matching figures for `O=C(Cc1cc(OC(F)(F)F)ccc1F)Nc1ccc(CCCCn2cc(C(=O)NCC3CCO3)nn2)nn1` (stereo not shown) [Example 582, 1-(4-(6-(2-(2-fluoro-5-(trifluoromethoxy)phenyl)acetamido)pyridazin-3-yl)butyl)-N-(oxetan-2-ylmethyl)-1H-1,2,3-triazole-4-carboxamide]: under 100 nM and 100 to 500 nM.
On to `O=C(Cc1cc(OC(F)(F)F)ccc1F)Nc1ccc(CCCCn2cc(C(=O)NC3CC3)nn2)nn1` [Example 583, N-cyclopropyl-1-(4-(6-(2-(2-fluoro-5-(trifluoromethoxy)phenyl)acetamido)pyridazin-3-yl)butyl)-1H-1,2,3-triazole-4-carboxamide], for which the concentration for half-maximal inhibition (IC50) in assay [1] was under 100 nM. Further, in the assay on A549 cells, the concentration for a half-maximal effect (EC50) was under 100 nM.
Turning to `COCCNC(=O)c1cn(CCCCc2ccc(NC(=O)Cc3cc(OC(F)(F)F)ccc3F)nn2)nn1` [Example 584, 1-(4-(6-(2-(2-fluoro-5-(trifluoromethoxy)phenyl)acetamido)pyridazin-3-yl)butyl)-N-(2-methoxyethyl)-1H-1,2,3-triazole-4-carboxamide], the IC50 in assay [1] is under 100 nM. Further, the EC50 with A549 cells lay in the range of 100 to 500 nM.
In the case of `O=C(Cc1cc(OC(F)(F)F)ccc1F)Nc1ccc(CCCCn2cc(C(=O)NCc3ccccn3)nn2)nn1` [Example 585, 1-(4-(6-(2-(2-fluoro-5-(trifluoromethoxy)phenyl)acetamido)pyridazin-3-yl)butyl)-N-(pyridin-2-ylmethyl)-1H-1,2,3-triazole-4-carboxamide], in assay [1], the concentration for half-maximal inhibition (IC50) was under 100 nM. The concentration giving a half-maximal response (EC50) in the assay with A549 cells is under 100 nM.
For `O=C(Cc1cc(OC(F)(F)F)ccc1F)Nc1ccc(CCCCn2cc(C(=O)NCc3cccnc3)nn2)nn1` [Example 586, 1-(4-(6-(2-(2-fluoro-5-(trifluoromethoxy)phenyl)acetamido)pyridazin-3-yl)butyl)-N-(pyridin-3-ylmethyl)-1H-1,2,3-triazole-4-carboxamide], in assay [1], the IC50 is under 100 nM. In the assay on A549 cells, this compound gave an EC50 of under 100 nM.
As for `O=C(Cc1cc(OC(F)(F)F)ccc1F)Nc1ccc(CCCCn2cc(C(=O)NCc3ccncc3)nn2)nn1` [Example 587, 1-(4-(6-(2-(2-fluoro-5-(trifluoromethoxy)phenyl)acetamido)pyridazin-3-yl)butyl)-N-(pyridin-4-ylmethyl)-1H-1,2,3-triazole-4-carboxamide], in assay [1], the IC50 is under 100 nM. Moreover, the EC50 in the assay with A549 cells is under 100 nM.
Regarding `O=C(Cc1ccccn1)Nc1ccc(CCCCn2cc(C(=O)NCc3cc(OC(F)(F)F)ccc3F)nn2)nn1` [Example 588, N-(2-fluoro-5-(trifluoromethoxy)benzyl)-1-(4-(6-(2-(pyridin-2-yl)acetamido)pyridazin-3-yl)butyl)-1H-1,2,3-triazole-4-carboxamide], the IC50 in assay [1] is under 100 nM. In the assay with A549 cells, this compound registered an EC50 of under 100 nM.
For the compound `O=C(Cc1cccnc1)Nc1ccc(CCCCn2cc(C(=O)NCc3cc(OC(F)(F)F)ccc3F)nn2)nn1` [Example 589, N-(2-fluoro-5-(trifluoromethoxy)benzyl)-1-(4-(6-(2-(pyridin-3-yl)acetamido)pyridazin-3-yl)butyl)-1H-1,2,3-triazole-4-carboxamide], the half-maximal inhibitory concentration (IC50) in assay [1] is under 100 nM. In addition, the half-maximal effective concentration (EC50) with A549 cells was under 100 nM.
Turning to `O=C(Cc1ccncc1)Nc1ccc(CCCCn2cc(C(=O)NCc3cc(OC(F)(F)F)ccc3F)nn2)nn1` [Example 590, N-(2-fluoro-5-(trifluoromethoxy)benzyl)-1-(4-(6-(2-(pyridin-4-yl)acetamido)pyridazin-3-yl)butyl)-1H-1,2,3-triazole-4-carboxamide], in assay [1], the IC50 is under 100 nM. The EC50 with A549 cells was under 100 nM.
Consider `O=C(NCc1cc(OC(F)(F)F)ccc1F)c1cn(CCCCc2ccc(NC(=O)C3CC3)nn2)nn1` [Example 591], for which the IC50 in assay [1] is under 100 nM. In the assay on A549 cells, this compound came in with an EC50 of 100 to 500 nM.
As to `O=C(Cc1cccc(F)n1)Nc1nnc(CCC(F)Cn2cc(C(=O)NCc3cc(OC(F)(F)F)ccc3F)nn2)s1` (stereo not shown) [Example 592, 1-(2-fluoro-4-(5-(2-(6-fluoropyridin-2-yl)acetamido)-1,3,4-thiadiazol-2-yl)butyl)-N-(2-fluoro-5-(trifluoromethoxy)benzyl)-1H-1,2,3-triazole-4-carboxamide], in assay [1], the IC50 is under 100 nM. In the assay on A549 cells, this compound returned a 50% effective concentration (EC50) of under 100 nM.
For the compound `O=C(Cc1cncs1)Nc1nnc(CCC(F)Cn2cc(C(=O)NCc3cc(OC(F)(F)F)ccc3F)nn2)s1` (stereo not shown) [Example 593, 1-(2-fluoro-4-(5-(2-(thiazol-5-yl)acetamido)-1,3,4-thiadiazol-2-yl)butyl)-N-(2-fluoro-5-(trifluoromethoxy)benzyl)-1H-1,2,3-triazole-4-carboxamide], the half-maximal inhibitory concentration (IC50) in assay [1] is under 100 nM. In the assay with A549 cells, this compound returned a half-maximal effective concentration (EC50) of under 100 nM.
In the case of `O=C(Nc1nnc(CCC(F)Cn2cc(C(=O)NCc3cc(OC(F)(F)F)ccc3F)nn2)s1)c1ccncc1` (stereo not shown) [Example 594, N-(5-(3-fluoro-4-(4-((2-fluoro-5-(trifluoromethoxy)benzyl)carbamoyl)-1H-1,2,3-triazol-1-yl)butyl)-1,3,4-thiadiazol-2-yl)isonicotinamide], the IC50 in assay [1] was under 100 nM. Further, the EC50 in the assay on A549 cells lay within 500 to 5000 nM.
The matching figures for `O=C(NCc1cc(OC(F)(F)F)ccc1F)c1cn(CC(F)CCc2nnc(NC(=O)c3ccccn3)s2)nn1` (stereo not shown) [Example 595, N-(5-(3-fluoro-4-(4-((2-fluoro-5-(trifluoromethoxy)benzyl)carbamoyl)-1H-1,2,3-triazol-1-yl)butyl)-1,3,4-thiadiazol-2-yl)picolinamide]: under 100 nM and under 100 nM.
With `NC(=O)c1cn(CCCCc2ccc(NC(=O)Cc3cccc(OC(F)(F)F)c3)nn2)nn1` [Example 596, 1-(4-(6-(2-(3-(trifluoromethoxy)phenyl)acetamido)pyridazin-3-yl)butyl)-1H-1,2,3-triazole-4-carboxamide], the IC50 in assay [1] is under 100 nM. In the assay with A549 cells, this compound came in with an EC50 of 100 to 500 nM.
In the case of `O=C(Cc1cc(OC(F)(F)F)ccc1F)Nc1ccc(CCCCc2nnc(C(=O)NCCO)s2)nn1` [Example 597, 5-(4-(6-(2-(2-fluoro-5-(trifluoromethoxy)phenyl)acetamido)pyridazin-3-yl)butyl)-N-(2-hydroxyethyl)-1,3,4-thiadiazole-2-carboxamide], the IC50 in assay [1] is under 100 nM. Moreover, the EC50 in the assay with A549 cells lay within 100 to 500 nM.
Consider `CNC(=O)c1nnc(CCCCc2ccc(NC(=O)Cc3cc(OC(F)(F)F)ccc3F)nn2)s1` [Example 598, 5-(4-(6-(2-(2-fluoro-5-(trifluoromethoxy)phenyl)acetamido)pyridazin-3-yl)butyl)-N-methyl-1,3,4-thiadiazole-2-carboxamide], for which the 50% inhibitory concentration (IC50) in assay [1] is under 100 nM. This compound also registered an EC50 with A549 cells of under 100 nM.
`CC(=O)Nc1ccc(CCCCc2nnc(C(=O)NCc3cccc(OC(F)(F)F)c3)s2)nn1` [Example 599, 5-(4-(6-acetamidopyridazin-3-yl)butyl)-N-(3-(trifluoromethoxy)benzyl)-1,3,4-thiadiazole-2-carboxamide]: the IC50 in assay [1] was under 100 nM. In the assay with A549 cells, this compound gave a half-maximal effective concentration (EC50) of under 100 nM.

For orientation: IC50 means the concentration that gives 50% inhibition. For orientation: EC50 means the concentration at which the effect is half-maximal. A lower EC50 goes with greater potency.
